Reference: US20180072997A1, “INHIBITORS OF HUMAN IMMUNODEFICIENCY VIRUS REPLICATION” (ViiV HEATHCARE UK (NO.5) LIMITED, priority 2015, published 2018)

Legend:
[1] = Compound cytotoxicity, XTT-based colorimetric assay; format: cell-based; settings: human, uninfected MT2 cells, day 4, XTT
Method: Compound cytotoxicity and the corresponding CC50 values were determined using the same protocol as described in the antiviral assay except that uninfected cells were used. Cytotoxicity was assessed on day 4 in uninfected MT2 cells by using a XTT (2,3-bis[2-Methoxy-4-nitro-5-sulfophenyl]-2H-tetrazolium-5-carboxyanilide inner salt)-based colorimetric assay (Sigma-Aldrich, St Louis, Mo.).

[2] = system: recombinant NL4-3 virus (Renilla luciferase in nef) in MT-2 cells; assay: whole plant or invertebrate; format: cell-based, HIV; settings: Renilla, NL43, MT-2 cells infected for 4-5 days with recombinant NL4-3 Renilla luciferase virus; luciferase activity
Method: HIV cell culture assay—MT-2 cells, 293T cells and the proviral DNA clone of NL4-3 virus were obtained from the NIH AIDS Research and Reference Reagent Program. MT-2 cells were propagated in RPMI 1640 media supplemented with 10% heat inactivated fetal bovine serum (FBS), 100 μg/ml penicillin G and up to 100 units/mL streptomycin. The 293T cells were propagated in DMEM media supplemented with 10% heat inactivated FBS, 100 μg/mL penicillin G and 100 μg/mL streptomycin. A recombinant NL4-3 proviral clone, in which a section of the nef gene was replaced with the Renilla luciferase gene, was used to make the reference virus used in these studies. The recombinant virus was prepared through transfection of the recombinant NL4-3 proviral clone into 293T cells using Transit-293 Transfection Reagent from Mirus Bio LLC (Madison, Wis.). Supernatent was harvested after 2-3 days and the amount of virus present was titered in MT-2 cells using luciferase enzyme activity as a marker by measuring luciferase enzyme activity. Luciferase was quantitated using the EnduRen Live Cell Substrate from Promega (Madison, Wis.). Antiviral activities of compounds toward the recombinant virus were quantified by measuring luciferase activity in MT-2 cells infected for 4-5 days with the recombinant virus in the presence of serial dilutions of the compound.
(Johnson V A, Byington R T. Infectivity Assay. In Techniques in HIV Research. ed. Aldovini A, Walker BD. 71-76. New York: Stockton Press.1990).

Compound	CC50 at 4 days [1]	EC50 [2]
COc1ccc(N(C)C(=O)[C@H](Cc2ccccc2)NC(=O)/C=C\C(=O)N[C@@H](Cc2ccccc2)C(=O)N(C)c2ccc(OC)cc2)cc1 [Example 80]	12.8 µM	0.16 µM
COc1ccc(N(C)C(=O)[C@H](Cc2ccccc2)NC(=O)[C@@H]2CC[C@H](C(=O)N[C@@H](Cc3ccccc3)C(=O)N(C)c3ccc(OC)cc3)C2)cc1 [Example 52]	22.6 µM	1.14 µM
COc1ccc(N(C)C(=O)[C@H](Cc2ccccc2)NC(=O)c2cccc(C(=O)N[C@@H](Cc3ccccc3)C(=O)N(C)c3ccc(OC)cc3)n2)cc1 [Example 39]	≥ 33.3 µM	0.95 µM
COc1ccc(N(C)C(=O)[C@H](Cc2cc(F)cc(F)c2)NC(=O)CN2c3ccccc3N(CC(=O)N[C@@H](Cc3cc(F)cc(F)c3)C(=O)N(C)c3ccc(OC)nc3)S2(=O)=O)cn1 [Example 197]	9.3 µM	0.01 µM
COc1ccc(NC(=O)[C@H](Cc2ccccc2)NS(=O)(=O)NC(=O)N[C@@H](Cc2ccccc2)C(=O)N(C)c2ccc(OC)cc2)cc1 [Example 12]	29 µM	12.4 µM
COc1ccc(N(C)C(=O)[C@H](Cc2cc(F)cc(F)c2)NC(=O)Cn2c(=O)n(CC(=O)N[C@@H](Cc3cc(F)cc(F)c3)C(=O)N(C)c3ccc(OC)cc3)c3cc(Cl)ccc32)cc1 [Example 72]	4.4 µM	0.04 µM
C=CCN(C(=O)[C@H](Cc1cc(F)cc(F)c1)NC(=O)c1nccnc1C(=O)N[C@@H](Cc1cc(F)cc(F)c1)C(=O)N(CC=C)c1ccc(OC)cc1)c1ccc(OC)cc1 [Example 212]	≥ 100 µM	3.73 µM
CN(C(=O)[C@H](Cc1ccccc1)NC(=O)c1cccc(C(=O)N[C@@H](Cc2ccccc2)C(=O)N(C)c2ccc3scnc3c2)c1)c1ccc2scnc2c1 [Example 50]	3.7 µM	0.04 µM
COc1ccc(N(C)C(=O)[C@H](Cc2cc(F)cc(F)c2)NC(=O)NS(=O)(=O)N[C@@H](Cc2cc(F)cc(F)c2)C(=O)N(C)c2ccc(OC)nc2)cn1 [Example 176]	≥ 100 µM	0.04 µM
CCN(C(=O)[C@H](Cc1cc(F)cc(F)c1)NC(=O)NS(=O)(=O)N[C@@H](Cc1cc(F)cc(F)c1)C(=O)N(CC)c1ccc2oc(=O)n(CC)c2c1)c1ccc2oc(=O)n(CC)c2c1 [Example 156]	≥ 50 µM	24.7 µM
COc1ccc(N(C)C(=O)[C@H](Cc2ccccc2)NC(=O)C2CCCCC2C(=O)N[C@@H](Cc2ccccc2)C(=O)N(C)c2ccc(OC)cc2)cc1 (mixture of isomers) [Example 53]	≥ 33.3 µM	0.34 µM
C=CCCN(C(=O)[C@H](Cc1cc(F)cc(F)c1)NC(=O)NS(=O)(=O)N[C@@H](Cc1cc(F)cc(F)c1)C(=O)N(CC=C)c1ccc(OC)cc1)c1ccc(OC)cc1 [Example 138]	12.9 µM	0.26 µM
COc1ccc(N(C)C(=O)[C@H](Cc2cc(F)cc(F)c2)NC(=O)c2cc(Cl)c(Cl)cc2C(=O)N[C@@H](Cc2cc(F)cc(F)c2)C(=O)N(C)c2ccc(OC)cc2)cc1 [Example 255]	10 µM	0.08 µM
COc1ccc(N(C)C(=O)[C@H](Cc2ccccc2)NC(=O)NS(=O)(=O)N[C@@H](Cc2cc(F)cc(F)c2)C(=O)N(C)c2ccc(OC)cc2)cc1 [Example 44]	67 µM	0.02 µM
Cc1cc(N(C)C(=O)[C@H](Cc2ccccc2)NC(=O)NS(=O)(=O)N[C@@H](Cc2ccccc2)C(=O)N(C)c2ccc(C#N)c(C)c2)ccc1C#N [Example 228]	93.5 µM	2.74 µM
COc1ccc(N(C)C(=O)[C@H](Cc2ccccc2)NC(=O)NS(=O)(=O)N[C@@H](Cc2ccccc2)C(=O)N(C)c2ccc(OC)cc2)cc1 [Example 2]	77.9 µM	0.03 µM
CN(C(=O)[C@H](Cc1cc(F)cc(F)c1)NC(=O)NS(=O)(=O)N[C@@H](Cc1cc(F)cc(F)c1)C(=O)N(C)c1ccc(=O)n(C)c1)c1ccc(=O)n(C)c1 [Example 174]	≥ 100 µM	100 µM
C=CCN(C(=O)[C@H](Cc1cc(F)cc(F)c1)NC(=O)c1ccccc1C(=O)N[C@@H](Cc1cc(F)cc(F)c1)C(=O)N(CC=C)c1ccc(OC)cc1)c1ccc(OC)cc1 [Example 191]	≥ 100 µM	1.79 µM
COc1ccc(N(C)C(=O)[C@H](Cc2ccccc2)NC(=O)NS(=O)(=O)N[C@@H](Cc2ccc(F)cc2)C(=O)N(C)C)cc1 [Example 9]	≥ 100 µM	2.67 µM

Compound	CC50 at 4 days [1]	EC50 [2]
COc1ccc(N(C)C(=O)[C@H](Cc2ccccc2)NC(=O)Cc2cn(CC(=O)N[C@@H](Cc3ccccc3)C(=O)N(C)c3ccc(OC)cc3)c3ccccc23)cc1 [Example 61]	32.6 µM	0.61 µM
CN(C(=O)[C@H](Cc1cc(F)cc(F)c1)NC(=O)CN1c2ccccc2N(CC(=O)N[C@@H](Cc2cc(F)cc(F)c2)C(=O)N(C)c2ccc3sncc3c2)S1(=O)=O)c1ccc2sncc2c1 [Example 160]	≥ 100 µM	0.02 µM
CN(C(=O)[C@H](Cc1cc(F)cc(F)c1)NC(=O)NS(=O)(=O)N[C@@H](Cc1cc(F)cc(F)c1)C(=O)N(C)c1ccc(F)c(F)c1)c1ccc(F)c(F)c1 [Example 215]	34.5 µM	0.31 µM
COc1ccc(N(C)C(=O)[C@H](Cc2ccccc2)NC(=O)CC(C)(C)C(=O)N[C@@H](Cc2ccccc2)C(=O)N(C)c2ccc(OC)cc2)cc1 [Example 30]	31.2 µM	4.96 µM
COc1ccc(N(C)C(=O)[C@H](Cc2ccccc2)NC(=O)Cn2c(=O)n(CC(=O)N[C@@H](Cc3ccccc3)C(=O)N(C)c3ccc(OC)cc3)c3cc(F)ccc32)cc1 [Example 75]	11.5 µM	0.08 µM
COc1ccc(N(C)C(=O)[C@H](Cc2ccccc2)NC(=O)CC2(CC(=O)N[C@@H](Cc3ccccc3)C(=O)N(C)c3ccc(OC)cc3)CCCC2)cc1 [Example 78]	≥ 50 µM	50 µM
CN(C(=O)[C@H](Cc1ccccc1)NC(=O)NS(=O)(=O)N[C@@H](Cc1ccccc1)C(=O)N(C)c1ccc(C(C)(C)C)cc1)c1ccc(C(C)(C)C)cc1 [Example 167]	26.5 µM	0.27 µM
COc1ccc(N(C)C(=O)[C@H](Cc2ccccc2)NC(=O)c2cccc(S(=O)(=O)N[C@@H](Cc3ccccc3)C(=O)N(C)c3ccc(OC)cc3)c2)cc1 [Example 108]	≥ 100 µM	0.72 µM
CN(C(=O)[C@H](Cc1cc(F)cc(F)c1)NC(=O)c1ccc(F)c(C(=O)N[C@@H](Cc2cc(F)cc(F)c2)C(=O)N(C)c2ccc3snnc3c2)c1)c1ccc2snnc2c1 [Example 179]	≥ 100 µM	0.34 µM
CN(C(=O)[C@H](Cc1cc(F)cc(F)c1)NC(=O)NS(=O)(=O)N[C@@H](Cc1cc(F)cc(F)c1)C(=O)N(C)c1ccc(OC(F)(F)F)cc1)c1ccc(OC(F)(F)F)cc1 [Example 189]	8.2 µM	0.01 µM
COc1ccc(N(C)C(=O)[C@H](Cc2ccccc2)NC(=O)Cc2cccc(CC(=O)N[C@@H](Cc3ccccc3)C(=O)N(C)c3ccc(OC)cc3)c2)cc1 [Example 42]	40.7 µM	0.85 µM
COc1ccc(N(C)C(=O)[C@H](Cc2ccccc2)NC(=O)CCN2CCN(CCC(=O)N[C@@H](Cc3ccccc3)C(=O)N(C)c3ccc(OC)cc3)CC2)cc1 [Example 40]	36 µM	0.31 µM
COc1ccc(N(C)C(=O)[C@H](Cc2cc(F)cc(F)c2)NC(=O)CN2c3ccccc3N(CC(=O)N[C@@H](Cc3cc(F)cc(F)c3)C(=O)N(C)c3ccc(OC)cc3)S2(=O)=O)cc1 [Example 34]	≥ 100 µM	0.01 µM
COc1ccc(N(C)C(=O)[C@H](Cc2cc(F)cc(F)c2)NC(=O)CS(=O)(=O)N[C@@H](Cc2cc(F)cc(F)c2)C(=O)N(C)c2ccc(OC)cc2)cc1 [Example 64]	11.3 µM	0.38 µM
COc1ccc(N(C)C(=O)[C@H](Cc2ccccc2)NC(=O)c2cccc(C(=O)N[C@@H](Cc3ccccc3)C(=O)N(C)c3ccc(OC)cc3)c2)cc1 [Example 24]	4.2 µM	0.09 µM
COc1ccc(N(C)C(=O)[C@H](Cc2ccccc2)NC(=O)Cn2c(=O)n(CC(=O)N[C@@H](Cc3ccccc3)C(=O)N(C)c3ccc(OC)cc3)c3cc(N)ccc32)cc1 [Example 90]	22.7 µM	0.34 µM
CN(C(=O)[C@H](Cc1cc(F)cc(F)c1)NC(=O)CN1c2ccccc2N(CC(=O)N[C@@H](Cc2cc(F)cc(F)c2)C(=O)N(C)c2ccc3scnc3c2)S1(=O)=O)c1ccc2scnc2c1 [Example 118]	≥ 100 µM	–
CN(C(=O)[C@H](Cc1cc(F)cc(F)c1)NC(=O)c1c(F)c(F)c(F)c(C(=O)N[C@@H](Cc2cc(F)cc(F)c2)C(=O)N(C)c2ccc3scnc3c2)c1F)c1ccc2scnc2c1 [Example 81]	2.8 µM	–
CCc1ccc(N(C)C(=O)[C@H](Cc2cc(F)cc(F)c2)NC(=O)NS(=O)(=O)N[C@@H](Cc2cc(F)cc(F)c2)C(=O)N(C)c2ccc(CC)cc2)cc1 [Example 173]	25.5 µM	–
